From ChEMBL document CHEMBL1201862, “PubChem BioAssay data set” (2004)
Calls of active or inactive are those of the source.

Assays:
[1] = biological target: Voltage-dependent T-type calcium channel subunit alpha-1H (Homo sapiens, UniProt O95180); assay type: functional;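 note: channel activity triggered by adding a high calcium stimulation buffer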
Beta-galactosidase = Beta-galactosidase (Escherichia coli, UniProt Q8VNN2); assay: PubChem AID 485352; assay type: functional
[2] = biological target: T1, Type-1 angiotensin II receptor (Homo sapiens, UniProt P30556); assay: AT1 receptor antagonists, dose response, selectivity assay for APJ receptor antagonist project, cell-based, uHTS hits (AID 463214); assay type: functional;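 note: antagonist potency against angiotensin II stimulated AT1 response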
T1 sequence (P30556 whole entry): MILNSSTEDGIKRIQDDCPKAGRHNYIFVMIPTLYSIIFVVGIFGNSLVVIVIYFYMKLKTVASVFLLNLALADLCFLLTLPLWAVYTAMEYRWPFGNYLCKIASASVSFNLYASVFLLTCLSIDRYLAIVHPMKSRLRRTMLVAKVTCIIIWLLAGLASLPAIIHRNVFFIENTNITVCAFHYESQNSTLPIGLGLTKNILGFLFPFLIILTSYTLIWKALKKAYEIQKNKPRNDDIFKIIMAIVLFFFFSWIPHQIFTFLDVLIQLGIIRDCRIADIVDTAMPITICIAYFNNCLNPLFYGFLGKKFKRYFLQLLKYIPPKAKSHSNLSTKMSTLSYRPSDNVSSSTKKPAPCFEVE

CAAX prenyl protease 2 = biological target: T2, CAAX prenyl protease 2 (Saccharomyces cerevisiae S288c, UniProt Q03530); assay type: biochemical
T2 sequence (Q03530 whole entry): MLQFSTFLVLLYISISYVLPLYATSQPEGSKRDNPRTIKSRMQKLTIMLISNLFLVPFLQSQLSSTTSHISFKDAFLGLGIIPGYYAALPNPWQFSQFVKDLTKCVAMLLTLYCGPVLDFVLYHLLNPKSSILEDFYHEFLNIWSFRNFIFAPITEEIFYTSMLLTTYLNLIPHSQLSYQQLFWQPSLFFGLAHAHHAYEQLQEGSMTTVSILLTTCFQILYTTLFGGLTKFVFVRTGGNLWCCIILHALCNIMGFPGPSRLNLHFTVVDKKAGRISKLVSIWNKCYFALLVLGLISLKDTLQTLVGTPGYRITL

[3] = biological target: T3, G-protein coupled receptor 55 (Homo sapiens, UniProt Q9Y2T6); assay: GPR55 agonists via beta-arrestin recruitment, primary screen, imaging, U2OS cells, beta-arrestin-GFP redistribution (AID 1961); assay type: functional
fMet-Leu-Phe receptor = biological target: T4, fMet-Leu-Phe receptor (Homo sapiens, UniProt P21462); assay: FPR ligands, dose response (AID 519); assay type: functional
T4 sequence (P21462 whole entry): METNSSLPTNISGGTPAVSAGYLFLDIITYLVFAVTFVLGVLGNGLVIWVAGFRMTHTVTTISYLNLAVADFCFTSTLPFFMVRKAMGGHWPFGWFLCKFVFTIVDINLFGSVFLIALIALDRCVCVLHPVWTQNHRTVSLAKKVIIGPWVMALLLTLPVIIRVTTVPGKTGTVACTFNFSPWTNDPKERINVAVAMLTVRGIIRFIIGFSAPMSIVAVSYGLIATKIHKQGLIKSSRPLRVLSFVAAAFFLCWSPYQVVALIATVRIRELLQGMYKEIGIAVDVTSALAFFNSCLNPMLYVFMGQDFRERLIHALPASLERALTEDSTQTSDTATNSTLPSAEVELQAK

Cytochrome P450 2D6 = Cytochrome P450 2D6 (Homo sapiens, UniProt P10635);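 note: CYP2D6 member of a cytochrome P450 panel assay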
Cytochrome P450 1A2 = biological target: T5, Cytochrome P450 1A2 (Homo sapiens, UniProt P05177);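 note: PubChem cytochrome P450 panel assay, CYP1A2 panel member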
T5 sequence (P05177 whole entry): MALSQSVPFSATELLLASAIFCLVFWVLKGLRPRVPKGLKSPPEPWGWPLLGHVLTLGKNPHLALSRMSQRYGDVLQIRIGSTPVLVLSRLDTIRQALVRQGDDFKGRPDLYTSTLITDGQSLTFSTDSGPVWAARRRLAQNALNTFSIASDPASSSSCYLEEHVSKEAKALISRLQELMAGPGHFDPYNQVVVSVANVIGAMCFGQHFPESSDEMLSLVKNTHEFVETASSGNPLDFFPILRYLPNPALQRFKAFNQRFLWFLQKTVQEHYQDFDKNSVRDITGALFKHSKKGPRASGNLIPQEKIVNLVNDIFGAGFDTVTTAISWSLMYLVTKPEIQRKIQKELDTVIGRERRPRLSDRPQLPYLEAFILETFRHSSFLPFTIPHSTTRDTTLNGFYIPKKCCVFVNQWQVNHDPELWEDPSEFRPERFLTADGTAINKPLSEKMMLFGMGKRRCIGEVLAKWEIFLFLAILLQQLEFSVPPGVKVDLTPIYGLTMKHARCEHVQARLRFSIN

[4] = inhibitors of firefly luciferase expression or activity, dose response, H4 neuroglioma cells, luminescence (AID 1990); assay type: functional, cell-based
BJ [5] = assay: cytotoxicity toward BJ-TERT fibroblasts, dose response, cell-based, RAS-independent, luminescence (AID 1933); assay type: functional; details: Homo sapiens
[6] = Luminescence Cell-Based Dose Response HTS to Identify Inhibitors of 5'UTR Stem-Loop Driven Prion Protein mRNA Translation in H4 Neuroglioblastoma Cells. [Related pubchem assays: 1827 (Project Summary), 1813 (Primary HTS)]; assay type: functional
[7] = inhibitors of SNCA 5'UTR-driven reporter translation, confirmation, H4 neuroglioma cells, luminescence (AID 1988); assay type: functional, cell-based
BJ [8] = assay: cells; assay type: functional, cell-based; details: Homo sapiens
BJ [9] = assay: cytotoxicity toward BJ-TERT-LT-ST fibroblasts, dose response, cell-based, RAS-independent, luminescence (AID 1935); assay type: functional; details: Homo sapiens;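 note: BJ fibroblasts immortalized with TERT plus LT and ST oncogenes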
[10] = cytotoxicity toward DRD oncogenic fibroblasts, dose response, cell-based, non-viral oncogenic, luminescence (AID 1934); assay type: functional; details: Homo sapiens
Vero [11] = assay: cells; assay type: functional, cell-based; details: Chlorocebus sabaeus
Vero [12] = assay: cells; assay type: functional; details: Chlorocebus sabaeus
Saccharomyces cerevisiae = assay: NALP1 inhibitor project selectivity study, Caspase-1/ASC signal blockade IC50 in S. cerevisiae (AID 488863); assay type: functional, organism-based
[13] = biological target: T6, NACHT, LRR and PYD domains-containing protein 1 (Homo sapiens, UniProt Q9C000); assay: NALP1 inhibitors in yeast, dose response, luminescent (AID 488860); assay type: functional
T6 sequence (Q9C000 whole entry): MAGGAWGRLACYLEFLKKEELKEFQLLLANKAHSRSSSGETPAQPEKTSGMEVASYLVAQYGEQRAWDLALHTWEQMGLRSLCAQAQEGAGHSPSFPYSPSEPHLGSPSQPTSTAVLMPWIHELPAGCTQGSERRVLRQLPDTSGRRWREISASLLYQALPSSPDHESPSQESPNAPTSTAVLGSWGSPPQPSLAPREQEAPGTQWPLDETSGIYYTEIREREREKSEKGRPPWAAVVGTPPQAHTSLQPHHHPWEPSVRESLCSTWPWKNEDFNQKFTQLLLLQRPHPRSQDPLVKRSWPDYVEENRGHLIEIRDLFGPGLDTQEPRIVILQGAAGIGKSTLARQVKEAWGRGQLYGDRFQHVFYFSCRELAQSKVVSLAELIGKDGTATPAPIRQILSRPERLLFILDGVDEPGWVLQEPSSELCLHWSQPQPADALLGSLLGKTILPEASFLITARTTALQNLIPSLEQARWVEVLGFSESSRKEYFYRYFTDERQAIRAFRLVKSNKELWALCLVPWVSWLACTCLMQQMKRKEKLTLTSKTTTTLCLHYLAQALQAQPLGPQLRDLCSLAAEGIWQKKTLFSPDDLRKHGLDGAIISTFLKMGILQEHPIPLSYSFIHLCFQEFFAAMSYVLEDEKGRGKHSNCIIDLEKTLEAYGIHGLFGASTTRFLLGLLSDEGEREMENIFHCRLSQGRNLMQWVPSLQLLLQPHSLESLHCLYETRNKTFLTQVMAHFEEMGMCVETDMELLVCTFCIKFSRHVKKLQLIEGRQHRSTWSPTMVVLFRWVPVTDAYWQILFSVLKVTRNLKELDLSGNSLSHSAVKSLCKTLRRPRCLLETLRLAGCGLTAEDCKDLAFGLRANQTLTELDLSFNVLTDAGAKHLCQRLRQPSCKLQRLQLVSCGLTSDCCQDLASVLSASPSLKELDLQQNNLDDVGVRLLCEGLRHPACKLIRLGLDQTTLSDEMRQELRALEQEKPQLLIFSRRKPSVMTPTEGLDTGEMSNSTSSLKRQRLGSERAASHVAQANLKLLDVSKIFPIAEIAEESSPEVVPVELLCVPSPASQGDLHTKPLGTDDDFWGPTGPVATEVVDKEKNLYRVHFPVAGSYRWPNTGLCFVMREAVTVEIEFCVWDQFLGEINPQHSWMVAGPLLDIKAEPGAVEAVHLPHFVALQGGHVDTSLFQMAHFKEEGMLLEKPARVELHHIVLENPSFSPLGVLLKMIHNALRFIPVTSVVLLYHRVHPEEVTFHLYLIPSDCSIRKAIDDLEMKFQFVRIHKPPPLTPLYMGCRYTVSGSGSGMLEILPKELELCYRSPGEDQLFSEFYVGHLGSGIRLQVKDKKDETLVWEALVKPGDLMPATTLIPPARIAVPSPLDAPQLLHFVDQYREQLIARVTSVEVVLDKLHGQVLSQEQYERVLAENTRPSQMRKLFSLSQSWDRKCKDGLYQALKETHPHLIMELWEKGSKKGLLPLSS

[14] = biological target: T3, G-protein coupled receptor 55; assay: GPR55 antagonists blocking LPI-driven arrestin recruitment, primary screen, imaging, U2OS, beta-arrestin-GFP, LPI agonist (AID 2013); assay type: functional;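 note: antagonist potency measured as reduced agonist-driven arrestin aggregation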
[15] = biological target: Glyceraldehyde-3-phosphate dehydrogenase (Homo sapiens, UniProt P04406)
[16] = inhibitors of intracellular T. cruzi replication, confirmation, NIH3T3 host cells, beta-gal luminescence (AID 2044); assay type: functional, cell-based;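 note: intracellular parasites grown in NIH/3T3 mouse fibroblasts as host cells; luminescent beta-galactosidase reporter signal from transgenic T. cruzi replicating inside host cells; inhibitors lower the luminescence signal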
[17] = cytotoxicity toward NIH3T3 fibroblasts, dose response, counter-screen, cell-based, ATP luminescence, mouse fibroblasts (AID 2010); assay type: functional;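 note: cells exposed to compound for about 90 hours before reading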

Sequence of Voltage-dependent T-type calcium channel subunit alpha-1H (O95180 whole entry): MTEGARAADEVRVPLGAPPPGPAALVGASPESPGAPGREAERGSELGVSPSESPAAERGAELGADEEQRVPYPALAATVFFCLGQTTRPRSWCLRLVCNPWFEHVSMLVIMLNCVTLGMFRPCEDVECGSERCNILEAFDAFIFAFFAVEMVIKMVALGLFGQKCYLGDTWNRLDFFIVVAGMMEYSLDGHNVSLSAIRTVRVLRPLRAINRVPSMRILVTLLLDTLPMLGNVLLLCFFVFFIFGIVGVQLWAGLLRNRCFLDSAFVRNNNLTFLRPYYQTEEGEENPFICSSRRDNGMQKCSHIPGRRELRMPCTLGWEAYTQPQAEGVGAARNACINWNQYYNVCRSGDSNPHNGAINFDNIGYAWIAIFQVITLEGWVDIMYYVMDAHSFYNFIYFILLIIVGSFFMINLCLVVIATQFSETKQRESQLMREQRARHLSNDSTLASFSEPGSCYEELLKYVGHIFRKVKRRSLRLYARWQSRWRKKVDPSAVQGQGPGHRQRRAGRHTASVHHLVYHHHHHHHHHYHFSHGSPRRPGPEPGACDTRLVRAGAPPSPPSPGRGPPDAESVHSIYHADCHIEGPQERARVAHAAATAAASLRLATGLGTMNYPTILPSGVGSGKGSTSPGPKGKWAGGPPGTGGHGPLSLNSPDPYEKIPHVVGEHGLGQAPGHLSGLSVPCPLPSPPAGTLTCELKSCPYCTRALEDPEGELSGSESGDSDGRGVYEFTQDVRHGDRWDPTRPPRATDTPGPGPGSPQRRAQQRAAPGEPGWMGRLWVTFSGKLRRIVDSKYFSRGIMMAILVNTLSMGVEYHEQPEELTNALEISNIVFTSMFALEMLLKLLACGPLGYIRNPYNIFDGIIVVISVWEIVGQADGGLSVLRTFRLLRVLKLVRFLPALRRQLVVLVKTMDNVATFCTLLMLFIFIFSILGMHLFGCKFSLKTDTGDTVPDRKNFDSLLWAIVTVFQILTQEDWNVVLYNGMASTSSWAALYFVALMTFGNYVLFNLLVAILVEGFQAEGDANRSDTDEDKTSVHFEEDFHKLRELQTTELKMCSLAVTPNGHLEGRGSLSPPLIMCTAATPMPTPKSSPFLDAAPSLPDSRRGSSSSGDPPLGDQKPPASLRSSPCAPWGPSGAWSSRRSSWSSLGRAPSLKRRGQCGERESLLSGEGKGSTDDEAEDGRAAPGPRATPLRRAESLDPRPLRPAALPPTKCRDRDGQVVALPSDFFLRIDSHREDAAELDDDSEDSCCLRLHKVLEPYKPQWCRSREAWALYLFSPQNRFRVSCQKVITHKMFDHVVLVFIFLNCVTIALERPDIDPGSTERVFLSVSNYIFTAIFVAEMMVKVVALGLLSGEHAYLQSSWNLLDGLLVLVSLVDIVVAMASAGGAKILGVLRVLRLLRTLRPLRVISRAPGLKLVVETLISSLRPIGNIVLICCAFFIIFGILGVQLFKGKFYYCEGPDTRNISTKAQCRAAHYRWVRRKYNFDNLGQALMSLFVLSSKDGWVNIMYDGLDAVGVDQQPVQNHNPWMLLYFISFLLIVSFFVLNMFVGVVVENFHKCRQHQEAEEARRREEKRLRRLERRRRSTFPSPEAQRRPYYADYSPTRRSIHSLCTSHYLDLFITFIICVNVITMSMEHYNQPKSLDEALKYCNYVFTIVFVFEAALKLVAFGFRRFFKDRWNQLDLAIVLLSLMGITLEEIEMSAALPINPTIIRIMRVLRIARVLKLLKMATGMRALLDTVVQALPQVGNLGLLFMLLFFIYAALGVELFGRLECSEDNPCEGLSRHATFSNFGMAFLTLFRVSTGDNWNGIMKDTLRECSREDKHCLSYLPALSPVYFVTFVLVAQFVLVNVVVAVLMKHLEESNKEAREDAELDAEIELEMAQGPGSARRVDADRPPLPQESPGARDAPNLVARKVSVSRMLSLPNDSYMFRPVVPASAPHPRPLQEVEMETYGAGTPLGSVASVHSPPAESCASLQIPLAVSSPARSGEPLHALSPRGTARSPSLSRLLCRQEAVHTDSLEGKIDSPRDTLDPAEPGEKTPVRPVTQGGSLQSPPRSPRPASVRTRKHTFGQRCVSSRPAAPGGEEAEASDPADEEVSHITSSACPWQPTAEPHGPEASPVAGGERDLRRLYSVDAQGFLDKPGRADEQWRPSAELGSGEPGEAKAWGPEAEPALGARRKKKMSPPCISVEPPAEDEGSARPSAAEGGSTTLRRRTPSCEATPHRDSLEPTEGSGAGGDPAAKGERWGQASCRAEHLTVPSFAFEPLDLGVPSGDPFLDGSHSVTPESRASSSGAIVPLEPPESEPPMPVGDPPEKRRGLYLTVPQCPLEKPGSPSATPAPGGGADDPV
T3 sequence (Q9Y2T6 whole entry): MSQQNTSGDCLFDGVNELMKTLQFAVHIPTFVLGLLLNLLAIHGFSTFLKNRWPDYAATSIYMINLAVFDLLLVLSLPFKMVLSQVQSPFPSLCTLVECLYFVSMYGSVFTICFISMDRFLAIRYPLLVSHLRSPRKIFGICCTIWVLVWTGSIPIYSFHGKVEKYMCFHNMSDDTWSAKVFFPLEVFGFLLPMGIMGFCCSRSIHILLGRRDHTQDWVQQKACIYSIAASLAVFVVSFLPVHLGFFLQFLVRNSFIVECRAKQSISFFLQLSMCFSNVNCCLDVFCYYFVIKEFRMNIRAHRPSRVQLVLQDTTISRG
Sequence of Glyceraldehyde-3-phosphate dehydrogenase (P04406 whole entry): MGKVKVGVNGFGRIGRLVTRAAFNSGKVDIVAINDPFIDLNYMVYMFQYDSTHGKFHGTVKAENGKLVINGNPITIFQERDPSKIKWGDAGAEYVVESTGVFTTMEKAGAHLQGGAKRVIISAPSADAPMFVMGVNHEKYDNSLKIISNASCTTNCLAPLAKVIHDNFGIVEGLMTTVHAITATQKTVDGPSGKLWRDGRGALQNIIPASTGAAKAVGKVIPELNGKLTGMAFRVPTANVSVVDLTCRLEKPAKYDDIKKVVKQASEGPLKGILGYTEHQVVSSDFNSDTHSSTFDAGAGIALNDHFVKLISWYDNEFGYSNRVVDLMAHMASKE
Sequence of Cytochrome P450 2D6 (P10635 whole entry): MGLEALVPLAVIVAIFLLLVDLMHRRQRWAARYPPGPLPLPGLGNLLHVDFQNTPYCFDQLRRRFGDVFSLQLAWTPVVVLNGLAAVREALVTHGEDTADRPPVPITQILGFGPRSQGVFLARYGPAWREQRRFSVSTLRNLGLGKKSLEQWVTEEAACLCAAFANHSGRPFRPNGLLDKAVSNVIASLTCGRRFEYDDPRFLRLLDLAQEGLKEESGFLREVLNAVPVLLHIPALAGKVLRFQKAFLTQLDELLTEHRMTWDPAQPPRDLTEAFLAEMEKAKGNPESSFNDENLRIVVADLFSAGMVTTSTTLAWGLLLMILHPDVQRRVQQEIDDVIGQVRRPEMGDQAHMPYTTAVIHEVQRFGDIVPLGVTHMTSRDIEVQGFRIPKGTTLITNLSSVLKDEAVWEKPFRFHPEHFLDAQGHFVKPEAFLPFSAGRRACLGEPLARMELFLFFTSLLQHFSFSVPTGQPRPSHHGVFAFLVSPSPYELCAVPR
Sequence of Beta-galactosidase (Q8VNN2 whole entry): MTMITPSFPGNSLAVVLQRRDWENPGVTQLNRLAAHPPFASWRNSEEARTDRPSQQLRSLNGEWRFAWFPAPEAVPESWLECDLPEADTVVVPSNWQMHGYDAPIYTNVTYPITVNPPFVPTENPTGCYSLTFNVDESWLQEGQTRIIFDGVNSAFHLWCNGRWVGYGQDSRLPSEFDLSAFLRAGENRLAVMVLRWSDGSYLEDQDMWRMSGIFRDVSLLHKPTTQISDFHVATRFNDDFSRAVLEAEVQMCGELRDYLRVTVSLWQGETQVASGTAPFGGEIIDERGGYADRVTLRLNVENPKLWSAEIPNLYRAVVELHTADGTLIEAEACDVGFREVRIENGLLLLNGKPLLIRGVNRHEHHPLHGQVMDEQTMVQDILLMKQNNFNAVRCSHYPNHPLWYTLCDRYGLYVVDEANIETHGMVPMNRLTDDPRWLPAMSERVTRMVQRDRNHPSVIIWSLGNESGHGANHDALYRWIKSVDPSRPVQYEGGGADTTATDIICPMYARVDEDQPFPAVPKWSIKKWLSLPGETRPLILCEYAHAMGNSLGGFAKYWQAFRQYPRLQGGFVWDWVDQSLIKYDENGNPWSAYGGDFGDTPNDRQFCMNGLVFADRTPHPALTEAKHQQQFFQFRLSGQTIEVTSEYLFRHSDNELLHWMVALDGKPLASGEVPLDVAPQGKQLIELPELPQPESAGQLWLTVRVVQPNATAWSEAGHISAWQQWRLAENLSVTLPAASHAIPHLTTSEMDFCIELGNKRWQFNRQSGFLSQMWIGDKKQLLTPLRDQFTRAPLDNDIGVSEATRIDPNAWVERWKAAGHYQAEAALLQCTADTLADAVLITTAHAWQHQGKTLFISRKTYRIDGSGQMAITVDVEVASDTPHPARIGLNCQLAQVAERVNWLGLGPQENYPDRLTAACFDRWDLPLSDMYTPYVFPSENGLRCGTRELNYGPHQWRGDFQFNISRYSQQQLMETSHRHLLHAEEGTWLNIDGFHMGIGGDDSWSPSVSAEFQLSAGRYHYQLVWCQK

Structure (SMILES): Cn1cccc1Cc1nnc(SCC(=O)Nc2cccc(Cl)c2)n1-c1ccc(F)cc1
- EC50 [1]: 1.24 µM (active)

Structure (SMILES): Cc1ccc(CNC(=O)C(=O)NCC2OCCN2S(=O)(=O)c2ccc3c(c2)OCCO3)cc1 (centres undefined)
- EC50 [1]: 4.92 µM (active)

Structure (SMILES): Cc1ccc(-c2c(C(=O)N/N=C/c3cccc(Cl)c3)nnn2-c2nonc2N)cc1
- EC50 (Beta-galactosidase): > 40 µM (inactive)
- IC50 [2]: > 40 µM (not active)
- AC50 (CAAX prenyl protease 2): 1.44 µM (active)

Structure (SMILES): Cc1nn2c(O)c3c(nc2c1-c1cccc2ccccc12)CCC3
- EC50 [3]: 8.52 µM (active)
- Ki (fMet-Leu-Phe receptor): 53.7 µM (inactive)
- AC50 (Cytochrome P450 2D6): 35.5 µM (inconclusive)
- AC50 (Cytochrome P450 1A2): 25.1 µM (inconclusive)

Structure (SMILES): COc1ccccc1NC(=O)Cc1nnc(SCC(=O)Nc2nccs2)n1C
- AC50 (CAAX prenyl protease 2): 21.1 µM (active)

Structure (SMILES): CC(=O)Nc1cccc(Oc2ncnc3scc(-c4ccc(C(C)C)cc4)c23)c1
- EC50 [4]: 21.7 µM (active)
- EC50 (BJ [5]): 42.6 µM (active)
- EC50 [6]: > 120 µM (not active)
- EC50 [7]: 18.2 µM (active)
- EC50 (BJ [8]): 61.5 µM (active)
- EC50 (BJ [9]): > 150 µM (inconclusive)
- EC50 [10]: 31.3 µM (active)
- EC50 [3]: 6.01 µM (active)
- IC50 (Vero [11]): 17.7 µM (active)
- CC50 (Vero [12]): > 25 µM (active)

Structure (SMILES): CCc1ccc(C(=O)NCc2ccc(Cl)cc2Cl)cc1
- IC50 (Saccharomyces cerevisiae): 61 µM (active)
- IC50 [13]: 33.9 µM (active)

Structure (SMILES): Cc1ccc(C(=O)N(c2ccccc2)C2CC(C)N(C(=O)c3ccco3)c3ccccc32)cc1 (centres undefined)
- IC50 [14]: 2.41 µM (active)

Structure (SMILES): CCCn1c(NCc2cc(OC)ccc2OC)nc2ccccc21
- EC50 [1]: 5.97 µM (active)

Structure (SMILES): O=C(O)c1cccc(N2C(=O)c3ccc4c5c(ccc(c35)C2=O)CC4)c1
- IC50 [15]: > 100 µM (not active)

Structure (SMILES): Cc1ccc(C(=O)/C=C\C(=O)c2ccc(C)cc2)cc1
- EC50 [16]: 1.97 µM (active)
- EC50 [17]: > 60 µM (not active)
- IC50 (Saccharomyces cerevisiae): 6.51 µM (active)
- IC50 [13]: 8.75 µM (active)
